Laboratory results as given in PubChem BioAssay (NCI).
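All cell lines were grown in 96-well plates and treated with compound for 48 hours. GI50 = concentration required for 50% inhibition of growth. TGI marks complete inhibition of growth.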 Where a SMILES comes first, the peptide text is derived from it.

Columns and labels:
Test in all cases: growth of human tumour cells (NCI), 48 h
[1] = system: UO-31 renal
[2] = system: M14 melanoma
[3] = system: CAKI-1 renal
[4] = system: NCI-H522 lung
[5] = system: K-562 leukemia
[6] = system: T-47D breast
[7] = system: SW-620 colon
[8] = system: SK-MEL-28 melanoma
[9] = system: SN12K1 renal
[10] = system: 786-0 renal

| Structure (SMILES) | TGI [1] | TGI [2] | TGI [3] | TGI [4] | TGI [5] | TGI [6] | TGI [7] | TGI [8] | TGI [9] | GI50 [5] | GI50 [7] | GI50 [8] | TGI [10] | GI50 [1] | GI50 [2] | GI50 [3] | GI50 [4] | GI50 [6] |
| --- | --- | --- | --- | --- | --- | --- | --- | --- | --- | --- | --- | --- | --- | --- | --- | --- | --- | --- |
| NC(CCOCCP(=O)(O)CCC1C=CC=CC1)C(=O)O (centres undefined) | > 100 µM | > 100 µM | > 100 µM | > 100 µM | > 100 µM | > 100 µM | > 100 µM | > 100 µM |  |  |  |  |  |  |  |  |  |  |
| CC[C@@]1(O)C(=O)OCc2c1cc1n(c2=O)Cc2cc3ccccc3nc2-1 | 0.234 µM | 1.8 µM | 0.0322 µM | 0.596 µM | 45.6 µM | 0.635 µM | 5.81 µM | 21.2 µM | 1 µM | 0.0514 µM | 0.0246 µM | 0.18 µM |  |  |  |  |  |  |
| C[Si](C)(C)c1ccc(-c2c3ccc(-c4cc(Br)cc(Br)c4)nc3nc3nc(-c4cc(Br)cc(Br)c4)ccc23)cc1 | > 100 µM | > 100 µM | > 100 µM | > 100 µM |  | > 100 µM |  | > 100 µM |  |  |  |  | > 100 µM |  |  |  |  |  |
| O=C1c2cccnc2C(=O)c2c1c(C(=O)OCCN1CCCCC1)c1ccccn21 | 1.67 µM | 0.0656 µM | 1.53 µM | 0.0992 µM | 1.67 µM | 7.4 µM | 0.362 µM | 2.19 µM |  | 0.0484 µM | 0.0187 µM | 0.21 µM |  | 0.0389 µM | 0.0147 µM | 0.0269 µM | 0.018 µM | 0.515 µM |
| Nc1ccc(O)c2c1C(=O)c1c(N)ccc(O)c1C2=O | > 100 µM | > 100 µM | > 100 µM | > 100 µM | > 100 µM |  | > 100 µM | > 100 µM |  |  |  |  | > 100 µM |  |  |  |  |  |
| NC(=O)C1CCCN1C(=O)C(N)Cc1ccccc1 (stereo not drawn) (H-Phe-Pro-NH2; configuration not given here) | > 100 µM | > 100 µM | > 100 µM | > 100 µM | > 100 µM | > 100 µM | > 100 µM | > 100 µM |  |  |  |  |  |  |  |  |  |  |
| CN(CC(=O)O)Cc1c(O)c(Cl)cc(Cl)c1Cl | > 100 µM | > 100 µM | > 100 µM | > 100 µM |  | > 100 µM | > 100 µM | 97.4 µM |  |  |  |  | > 100 µM |  |  |  |  |  |
| CC1C(=O)CC(c2cccs2)N(N=O)C1c1cccs1 (centres undefined) | > 100 µM |  | > 100 µM | > 100 µM | 27.6 µM |  | > 100 µM | > 100 µM | > 100 µM |  |  |  |  |  |  |  |  |  |
| CCc1n[nH]c(=O)n1/N=C(\C)c1ccc([N+](=O)[O-])cc1 | > 100 µM | > 100 µM | > 100 µM |  | > 100 µM | > 100 µM | > 100 µM | > 100 µM |  |  |  |  | > 100 µM |  |  |  |  |  |
| COc1ccc(NC(C)=O)cc1N1C(=O)/C(=C\c2ccccc2)SC1c1cc(OC)c(OC)c(OC)c1 (centres undefined) | > 100 µM | > 100 µM | > 100 µM | 35.4 µM | > 100 µM | > 100 µM | > 100 µM | > 100 µM |  |  |  |  | 49.2 µM |  |  |  |  |  |
| Clc1cc(Cl)c2cc3cccc[n+]3cc2c1Cl | 28.4 µM | 39 µM | 21 µM |  | 45.4 µM | 23.9 µM | 34.3 µM | 29.9 µM |  |  |  |  | 46.7 µM |  |  |  |  |  |
| OC[C@H]1NC[C@@H](O)[C@@H](O)[C@H]1O | > 100 µM | > 100 µM | > 100 µM |  | > 100 µM | > 100 µM | > 100 µM |  |  |  |  |  |  |  |  |  |  |  |
| COc1ccc(-c2nc3c(nc2-c2ccc(OC)cc2)C(N)=NS(=O)(=O)N3)cc1 | > 100 µM |  | > 100 µM | > 100 µM | > 100 µM |  | > 100 µM | > 100 µM |  |  |  |  | > 100 µM |  |  |  |  |  |
| CSc1nc(CO)c(CO)n1C | > 100 µM |  | > 100 µM | > 100 µM | > 100 µM |  | > 100 µM | > 100 µM | > 100 µM |  |  |  |  |  |  |  |  |  |
| CCOC(=O)Cn1c2ccc(Br)cc2c2nc3ccccc3nc21 | > 100 µM | > 100 µM | > 100 µM |  | > 100 µM | > 100 µM | > 100 µM | > 100 µM |  |  |  |  | > 100 µM |  |  |  |  |  |
| O=C(NC(Cc1ccc(Br)cc1)C(=O)O)c1ccc(I)cc1 (centres undefined) | > 100 µM |  | > 100 µM | > 100 µM | > 100 µM |  | > 100 µM | > 100 µM | > 100 µM |  |  |  |  |  |  |  |  |  |
| CCN1c2cc(Br)cc3[nH]c(=O)n(c23)CCC1C (centres undefined) | 37.7 µM | 34.8 µM | 36 µM |  | > 100 µM | 59.9 µM | > 100 µM | 65.8 µM |  |  |  |  | 28.1 µM |  |  |  |  |  |
| CC(=O)Nc1cccc(N2C(=O)/C(=C\c3cccc(Oc4ccccc4)c3)S(=O)(=O)C2c2ccccc2)c1 (centres undefined) | > 100 µM | > 100 µM | > 100 µM | > 100 µM | 79.2 µM | > 100 µM | > 100 µM | > 100 µM |  |  |  |  | > 100 µM |  |  |  |  |  |
| CN(Cc1cn(O)c2nc(=N)nc(N)c-2n1)c1ccc(C(=O)NC23CC4CC(CC(C4)C2)C3)cc1 | > 100 µM | > 100 µM | > 100 µM |  | > 100 µM | > 100 µM | > 100 µM | > 100 µM |  |  |  |  | > 100 µM |  |  |  |  |  |
